Experimental data: BindingDB's records for doi:10.1021/jm301186p (Universidad De Zaragoza, 2012)

Experiment: Inhibition of aggregation of human DHFR-fused amyloid beta (1 to 42) expressed in yeast harboring erg6delta assessed as increase in yeast viability measured up to 20 hrs in presence of MTX

For `O=C(Nc1ccccc1)Nc1ccc(Cl)cc1[N+](=O)[O-]`, the IC50 was 900 nM.

In the case of `O=S(=O)(Nc1ccc(N2CCCCC2)cc1)c1cc(Cl)sc1Cl`, the IC50 is reported as 700 nM.

Work on `Cc1nc2sc3c(c2c(=O)o1)CCCC3` yielded an IC50 of 1200 nM.

For `Nc1c(S(=O)(=O)c2ccc(Cl)cc2)cnc2cc(-c3ccccc3)nn12`, the IC50 was 2300 nM.
